Consider seven compounds from patent publication US20120095036A1, “NOVEL SUBSTITUTED INDAZOLE AND AZA-INDAZOLE DERIVATIVES AS GAMMA SECRETASE MODULATORS” (priority 2009, published 2012).

Format in all cases: cell-based
The subject of assay [1] is Aβtotal. In words: Method 1: Aβtotal sandwich ELISA on media of SKNBE2 cells carrying APP 695 wild type. The conditions noted are these: Homo sapiens, SKNBE2 cells APP 695 wild type, 18 hours. Put shortly: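 SKNBE2 cells expressing wild-type APP695 treated with compound for 18 h in Ultraculture; secreted Aβtotal measured by 6E10-capture/biotinylated 4G8 sandwich ELISA with fluorogenic peroxidase read-out. IC50 from 4-parameter fit, top/bottom fixed at 100/0, Hill slope 1; toxicity checked by WST-1.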
A general note: In an ELISA, binding on a coated surface is turned into a signal by an enzyme label.

Assay [2] relates to Aβ42. Briefly: Method 2: Aβ42 Alphalisa on supernatant of SKNBE2 cells carrying APP 695 wild type. The conditions noted are these: Homo sapiens, SKNBE2 cells APP 695 wild type, overnight. Put shortly: (§1)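 SKNBE2 cells expressing wild-type APP695 (10^4/well) were incubated overnight at 37 °C with compound at several concentrations. Secreted Aβ42 (C-terminal/N-terminal antibody pair) and Aβtotal (N-terminal/4G8 pair) were measured by AlphaLISA in the supernatant. IC50 values came from 4-parameter fits of percent of untreated control.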

In assay [3] the test system is Aβtotal. Briefly: Method 2: Aβtotal Alphalisa on supernatant of SKNBE2 cells carrying APP 695 wild type. The conditions noted are these: Homo sapiens, SKNBE2 cells APP 695 wild type, overnight. The method in brief: as §1
(Alpha assays give light when donor and acceptor beads are brought close together.)

Each structure is given as a SMILES string. pIC50: −log10 of the molar value.

As a reminder, the pIC50 is the IC50 on a negative log10 scale, so that one unit is a factor of ten. A high value points to a small IC50. With `COc1cccc(-n2cc3cccc(Nc4ccc(-n5cnc(C)c5)c(OC)c4)c3n2)c1` [Compound 1, N-[3-methoxy-4-(4-methyl-1H-imidazol-1-yl)phenyl]-2-(3-methoxyphenyl)-2H-indazol-7-amine], the pIC50 in assay [1] was under 5.52; in assay [2], 7.09; in assay [3] it was 5.08.
For `COc1cccc(-n2nc3c(Nc4ccc(-n5cnc(C)c5)c(OC)c4)cccc3c2C)c1` [Compound 2, N-[3-methoxy-4-(4-methyl-1H-imidazol-1-yl)phenyl]-2-(3-methoxyphenyl)-3-methyl-2H-indazol-7-amine] the same measures were under 6.00, 8.15 and 5.19.
For `COc1cc(Nc2cccc3cn(CC(F)(F)F)nc23)ccc1-c1cnc(C)o1` [Compound 6, N-[3-methoxy-4-(2-methyl-5-oxazolyl)phenyl]-2-(2,2,2-trifluoroethyl)-2H-indazol-7-amine], in that order: under 5.52, 6.79 and 5.40.
Take `COc1cc(Nc2cccc3cn(Cc4ccc(F)cc4)nc23)ccc1-n1cnc(C)c1` [Compound 15, 2-[(4-fluorophenyl)methyl]-N-[3-methoxy-4-(4-methyl-1H-imidazol-1-yl)phenyl]-2H-indazol-7-amine]: the pIC50 in assay [1] is under 5.52; in assay [2] it was 7.85; in assay [3], 5.18.
For `COc1cccc(-n2nc3c(Nc4ccc(-c5cnc(C)o5)cc4)cccc3c2C)c1` [Compound 29, 2-(3-methoxyphenyl)-3-methyl-N-[4-(2-methyl-5-oxazolyl)phenyl]-2H-indazol-7-amine] the same measures were under 6.00, 7.82 and under 5.00.
Turning to `COc1cc(Nc2cccc3cn(CC4CC4)nc23)ccc1-c1cnc(C)o1.Cl` [Compound 38, 2-(cyclopropylmethyl)-N-[3-methoxy-4-(2-methyl-5-oxazolyl)phenyl]-2H-indazol-7-amine HCl], the figures for the pIC50 in assay [1], in assay [2] and in assay [3] were under 5.52, 6.63 and 5.33, respectively.
For `COc1cccc(-n2nc3c(Nc4ccc(-c5cnc(C)o5)c(OC)c4)nccc3c2C)c1` [Compound 42, N-[3-methoxy-4-(2-methyl-5-oxazolyl)phenyl]-2-(3-methoxyphenyl)-3-methyl-2H-pyrazolo[3,4-c]pyridin-7-amine], in that order: under 5.52, 6.92 and 5.36.
